Measured values as given in patent publication US20110209228A1, “METHOD OF TREATMENT USING ANTIMICROBIAL COMPOSITION” (priority 2008, published 2011).
Ends that are not written are not given here.

Experiments:
[1] = bioactivity of peptides in milk; conditions: 200 μg/ml, 37° C., 30 or 60 min, data not shown
S. aureus = conditions: for activity against isolates (in words): S. aureus otitis externa isolates
S. pseudointermedin = conditions: for activity against isolates (in words): S. pseudointermedin otitis externa isolates
[2] = tested on: Streptococcus agalactiae (ATCC 12927)
[3] = tested on: Staphylococcus aureus (ATCC 25923)
[4] = tested on: Streptococcus equi equi (ATCC 9527)
[5] = tested on: Candida albicans (ATCC 753)
E. coli DH5α = experiment: microbroth dilution method, peptide and antibiotic combination; format: cell-based; conditions: tetracycline or chloramphenicol, E. coli DH5α
Experimental: To determine whether or not antimicrobial peptides as described herein act in a synergistic manner with antibiotic compounds, a microbroth dilution method was performed against E. coli DH5α performed according to the guidelines of the National Committee for Clinical Laboratory Standards.

[6] = tested on: all microorganisms tested; conditions: for antimicrobial activity against pathogens that cause mastitis (in words): S. uberis, E. coli, S. aureus and S. agalactiae
[7] = tested on: Salmonella choleraesuis (ATCC 14028)
lactobacilli = experiment: activity against lactobacilli (dairy starter culture); format: cell-based; conditions: dairy starter culture comprising lactobacilli
Source text: In separate experiments, the peptide AGG01 (SEQ ID NO: 7) or AG002 (SEQ ID NO: 8) is shown to be suitable for use in a dairy starter culture comprising lactobacilli, especially one or more Lactis spp., in particular one or more organisms selected individually or collectively from the group consisting of: L. helveticus, L. acidophilus, L. lactis, L. bugaricus and L. citrovorum, and especially L. acidophilus.

Pseudomonas aeruginosa = conditions: for activity against isolates (in words): Pseudomonas aeruginosa otitis externa isolates
S. epidermis = conditions: for activity against isolates (in words): S. epidermis otitis externa isolates
S. schleiferi = conditions: for activity against isolates (in words): S. schleiferi otitis externa isolates
[8] = heat resistance of antimicrobial peptides; conditions: 200 μg/ml; for antimicrobial bioactivity in phosphate buffer following heat treatment (in words): 10 mM phosphate buffer, up to 56° C. 30 min or 70° C. 15 min; for bioactivity in pasteurized milk following heat treatment (in words): pasteurised milk, up to 68° C. 30 min or 71.7° C. 20 sec, data not shown
S. uberis = conditions: both high and low salt concentrations
milk proteases = experiment: Western blotting of CHO cell extracts incubated in bovine milk; conditions: CHO cell extract, 2 hr
Experimental: Western blotting of cell lysates was performed according to standard procedures to confirm expression of peptides in mammalian cells. Briefly, cell extracts and culture supernatants were obtained from CHO cells transfected with the vectors pCMV-SPORT6-AGG01 and pCMV-SPORT6-AGG02, resolved in 18% (w/v) SDS/polyacrylamide electrophoresis gels, transferred by electroblotting onto nitrocellulose membrane and either stained in Ponceau S or probed with polyclonal antisera. In a further example, cell extracts were incubated in bovine milk for 2 hrs prior to their preparation for electrophoresis, to determine stability in milk. Control samples comprises non-transfected CHO cell extracts and supernatants. Membranes were developed using polyclonal rabbit anti-mAGG01 serum that had been produced according to standard procedures, by immunizing rabbits with synthetic peptide (i.e., SEQ ID NO: 7).

Substance	antimicrobial bioactivity in fresh milk (in words) [1]	antimicrobial bioactivity in pasteurized milk (in words) [1]	MIC (S. aureus)	activity against isolates (in words) (S. aureus)	MIC (S. pseudointermedin)	activity against isolates (in words) (S. pseudointermedin)	MIC [2]	MIC [3]	MIC (A. pleuropneumoniae)	MIC [5]	MIC (S. suis)	MIC (S. choleraesuis)	synergy with antibiotics (in words) (E. coli DH5α)	antimicrobial activity against pathogens that cause mastitis (in words) [6]	activity against lactobacilli (in words) (lactobacilli)	MIC (P. multicoda)	MIC (E. coli)	MIC (Pseudomonas aeruginosa)	activity against isolates (in words) (Pseudomonas aeruginosa)	MIC (S. epidermis)	other results
KRGLWESLKRKATKLGDDIRNTLRNFKIKFPVPRQ-NH2 [SEQ ID NO: 8]	reduced or inhibited	reduced or inhibited	4 µg/mL	especially strong activity	1 µg/mL	especially strong activity	1.2 µg/mL	5.44 ± 0.49 µg/mL	16 µg/mL	10.01 ± 0.47 µg/mL	4 to 8 µg/mL	>64 µg/mL	act synergistically	has antimicrobial activity	low activity against lactobacilli	8 to 32 µg/mL	8 to 32 µg/mL	8 to 32 µg/mL	slightly weaker activity	2 µg/mL	MIC [4]: 4.85 ± 0.35 µg/mL; MIC [7]: 9.32 ± 0.38 µg/mL; activity against isolates (in words) (S. epidermis): especially strong activity; MIC (P. haemolytica): 4 to 64 µg/mL; MIC (H. somnus): 32 µg/mL; MIC (S. schleiferi): 2 to 4 µg/mL; activity against isolates (in words) (S. schleiferi): especially strong activity; antimicrobial bioactivity in phosphate buffer following heat treatment (in words) [8]: retain their antimicrobial bioactivity; bioactivity in pasteurized milk following heat treatment (in words) [8]: reduced or inhibited; MIC (B. bronchiseptica): 32 µg/mL
KRGFGKKLRKRLKKFRNSIKKRLKNFNVVIPIPLP-NH2 [SEQ ID NO: 7]	retained	slightly reduced	2 µg/mL	especially strong activity	1 to 2 µg/mL	especially strong activity	3.81 µg/mL	5.72 ± 0.37 µg/mL	8 µg/mL	5.48 ± 0.16 µg/mL	16 to 32 µg/mL	4 to 8 µg/mL	act synergistically	exhibited antimicrobial activity	low activity against lactobacilli	16 µg/mL	1 to 8 µg/mL	2 to 4 µg/mL	Strong antimicrobial activity	1 µg/mL	inhibiting growth of and/or killing S. uberis (in words) (S. uberis): capable of inhibiting growth of and/or killing S. uberis; activity against isolates (in words) (A. pleuropneumoniae; A. pleuropneumoniae BRD/SRD isolates): Intermediate activity; activity against isolates (in words) (S. suis; S. suis BRD/SRD isolates): weaker activity; MIC, active against all microorganisms tested ([6]; summary of Table 1): less than 10 μg/ml; presence of peptide following incubation with bovine milk (Western blot, in words) (milk proteases): present; activity against isolates (in words) (E. coli; E. coli BRD/SRD isolates): especially strong activity; activity against isolates (in words) (S. epidermis): especially strong activity; MIC (P. haemolytica): 1 to 16 µg/mL; activity against isolates (in words) (P. haemolytica; P. haemolytica BRD/SRD isolates): possibly also against P. haemolytica; MIC (H. somnus): 16 µg/mL; activity against isolates (in words) (H. somnus; H. somnus BRD/SRD isolates): weaker activity; MIC (S. schleiferi): 2 to 4 µg/mL; activity against isolates (in words) (S. schleiferi): especially strong activity; antimicrobial bioactivity in phosphate buffer following heat treatment (in words) [8]: retain their antimicrobial bioactivity; bioactivity in pasteurized milk following heat treatment (in words) [8]: active in pasteurized milk, even following heat treatment; MIC (B. bronchiseptica): 1 to 2 µg/mL; activity against isolates (in words) (B. bronchiseptica; B. bronchiseptica BRD/SRD isolates): especially strong activity
